Measured values: US20100272814A1, “METHOD AND MEANS FOR PRODUCING BRONCHORELAXATION” (priority 2007, published 2010)

Experiments:
[1] = cited from earlier work; for absorption of the oral intake / oral dose: from food or intestine
[2] = system: airway obstruction in a patient with COPD; assay: Administration of iodine on activated charcoal to a patient with COPD (spirometric evaluation and symptoms); type: in vivo, human; conditions: oral intake for a few days, subjective observation

[CH3][Hg][Cl] [Methylmercury]
half time in whole body ([1]; in vivo): around 70 days
absorption of the oral intake / oral dose [1]: about 95%

II [elemental iodine]
bronchorelaxing effect / relief of airway obstruction [2]: no distinct bronchorelaxing effect was observed

[Cl][Hg][Cl] [mercuric chloride]
absorption of the oral intake / oral dose [1]: about 7%
